{"source": "the METLIN SMRT retention time set (Domingo-Almenara et al. 2019)"}
{"assay": "gradient 5% acetonitrile 3 min, to 50% in 2 min, to 85% in 15 min, held 3 min, 100 µL/min", "conditions": "column: Zorbax Extend-C18 2.1 x 50 mm; eluents: water / acetonitrile, 0.1% formic acid", "how_it_was_run": "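The system's dead and dwell volumes were 40 μL and 900 μL, with a Zorbax Extend-C18 column (2.1 × 50 mm, 1.8 μm) run at 100 μL/min in water and acetonitrile containing 0.1% formic acid each. Pure standards were analyzed in mixtures of ~100 molecules by HPLC–quadrupole time-of-flight mass spectrometry in positive and negative ionization mode. Retention time was assigned from computationally picked, manually inspected adduct peaks.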", "units": {"RP-LC retention time": "s"}}
{"smiles": "CCc1sc(NC(=O)c2sc(C)nc2C)nc1-c1ccc(Br)cc1", "RP-LC retention time": 1160}
{"smiles": "O=C1CCCN1CCCN(CC(=O)N1CCNCC1)C(=O)c1cccc(Cl)c1", "RP-LC retention time": 586}
{"smiles": "Cc1ccccc1-c1nnc(CSc2nnc(NC(=O)c3ccccc3Br)s2)o1", "RP-LC retention time": 943}
{"smiles": "CCOc1ccc(C(=O)Nc2ccc3c(c2)Sc2ncccc2C(=O)N3C(C)C)cc1", "RP-LC retention time": 972}
{"smiles": "CCCn1cc(CCNS(=O)(=O)c2ccccc2CC)c2cccnc21", "RP-LC retention time": 923}
{"smiles": "COc1cccc(N2CCN(C(=O)C3CCN(c4ncnc5c4oc4ccccc45)CC3)CC2)c1", "RP-LC retention time": 794}
{"smiles": "O=C(CN1C(=O)C(C(=O)N2CCCC2)Sc2ccccc21)N1CC=C(c2ccccc2)CC1", "note": "(configuration not stated)", "RP-LC retention time": 897}
{"smiles": "COCCNC(=O)Cn1c(=O)n(-c2ccc(C)cc2)c2ncccc21", "RP-LC retention time": 656}
{"smiles": "CSc1c(N(C)C)c(=O)c1=S", "RP-LC retention time": 756}
{"smiles": "Cc1ccc(NS(=O)(=O)c2cc(-c3[nH]ncc3C(=O)N3CCCCC3)oc2C)cc1", "RP-LC retention time": 773}
{"smiles": "FC1(F)CN[C@H](c2nc(-c3ccccc3)no2)C1", "RP-LC retention time": 794}
{"smiles": "COc1ccc(CNC(=O)Cn2c(C)cc(-c3nnc(C4CCC4)o3)c2C)cc1", "RP-LC retention time": 818}
{"smiles": "CC(C)NC(=O)N1CCC(c2nc3cccnc3n2C)C1", "note": "(configuration not stated)", "RP-LC retention time": 572}
{"smiles": "COc1cccc(-c2nnc(NC(=O)C3CCCCC3)o2)c1", "RP-LC retention time": 753}
{"smiles": "O=C(CCc1c[nH]c2ccccc12)Nc1ccc(-c2nnc3n2CCCC3)cc1", "RP-LC retention time": 704}
{"smiles": "CCS(=O)(=O)Nc1ccc2nc(N3CCN(c4ccccc4OC)CC3)cc(C(=O)O)c2c1", "RP-LC retention time": 633}
{"smiles": "CCOC(=O)c1ccc2nc(C(F)(F)F)nc(NCc3ccc(Cl)cc3)c2c1", "RP-LC retention time": 1240}
{"smiles": "Cc1nn(C(C)C(=O)NC2CCCCC2)c(=O)c2c(C)n(-c3ccccc3)nc12", "note": "(configuration not stated)", "RP-LC retention time": 946}
{"smiles": "Cn1nccc1-c1cccc(-c2noc(CNC(=O)c3ccccc3)n2)c1", "RP-LC retention time": 798}
{"smiles": "CC(=O)c1cccc(NC(=O)c2nn(C)c(C(F)(F)F)c2Cl)c1", "RP-LC retention time": 924}
{"smiles": "CC(C)N1CCn2c(nc3cc(C(=O)NCc4ccccc4Br)ccc32)C1=O", "RP-LC retention time": 731}
{"smiles": "CCOc1ccc(N2C(=O)C3N=NN(Cc4nc(-c5ccccc5)no4)C3C2=O)cc1", "note": "(configuration not stated)", "RP-LC retention time": 885}
{"smiles": "Cc1csc(-c2cc(S(=O)(=O)NCCc3cccs3)c(C)n2C)n1", "RP-LC retention time": 973}
{"smiles": "CC(=O)Nc1ccc(-c2nc(-c3ccc4c(c3)oc(=O)n4C(C)C)no2)cc1", "RP-LC retention time": 943}
{"smiles": "Cn1c(C(=O)N2CCCC(C(=O)N3CCN(c4ccccc4)CC3)C2)cc2sccc21", "note": "(configuration not stated)", "RP-LC retention time": 892}
{"smiles": "O=S(=O)(Nc1ccccc1F)c1c[nH]c2ncccc12", "RP-LC retention time": 697}
{"smiles": "Cc1ccccc1Oc1nccnc1N1CCC(C(=O)NC(C)CCc2ccccc2)CC1", "note": "(configuration not stated)", "RP-LC retention time": 1120}
{"smiles": "COCCNc1c(-c2ccc(C)cc2)nc2sc(C(=O)NC3CC3)c(C)n12", "RP-LC retention time": 766}
{"smiles": "O=C(NCCn1c(=O)n(Cc2ccccc2)c2cccnc21)c1ccco1", "RP-LC retention time": 725}
{"smiles": "CCN(CC)S(=O)(=O)c1ccc(Cl)c(C(=O)NCc2ccccn2)c1", "RP-LC retention time": 676}
{"smiles": "CN(C)CCNC(=O)c1ccc2c(c1)N(Cc1ccccc1)CCS2", "RP-LC retention time": 689}
{"smiles": "COc1ccc(-c2cc(N3CCC(NC(=O)c4cccc(Br)c4)C3)n[nH]2)cc1", "note": "(configuration not stated)", "RP-LC retention time": 738}
{"smiles": "O=c1[nH][nH]c2nnc(-c3c(-c4ccccc4)nn4ccccc34)cc12", "RP-LC retention time": 679}
{"smiles": "COC(=O)c1ncn2c1C(=O)N(Cc1cccc(C)c1)C(C)(C(=O)NCc1ccccc1)C2", "note": "(configuration not stated)", "RP-LC retention time": 759}
{"smiles": "Cc1cc(-c2nnc(NC(=O)NCc3ccc(Cl)cc3)o2)c(C)o1", "RP-LC retention time": 853}
{"smiles": "COc1ccc(Cc2nnc(C3CCN(C(=O)c4cccc(N(C)C)c4)CC3)s2)cc1", "RP-LC retention time": 712}
{"smiles": "CCOC(=O)C1CCN(C(=O)CCn2c(=O)oc3ccccc32)CC1", "RP-LC retention time": 708}
{"smiles": "COc1cc(-c2noc(Cn3ccnc3)n2)cc(OC)c1OC", "RP-LC retention time": 604}
{"smiles": "CCC1=NS(=O)(=O)c2cccnc2N1c1ccc(CC)cc1", "RP-LC retention time": 931}
{"smiles": "COc1ccc(CNC(=O)NCCOc2cc(C)cc(C)c2)cc1OC", "RP-LC retention time": 782}
{"smiles": "O=C([C@@H]1C[C@H](F)CN1C(=O)Nc1ccccc1)N1CCCCC1", "RP-LC retention time": 653}
{"smiles": "O=C(O)c1cnc(NCCc2cccs2)nc1-c1ccccn1", "RP-LC retention time": 765}
{"smiles": "O=C(NCc1cccnc1)C1c2ccccc2C(=O)N(C2CCCC2)C1c1cccs1", "note": "(configuration not stated)", "RP-LC retention time": 591}
{"smiles": "CCCc1nc(-c2c(C)cc(C)nc2NC(=O)c2ccc(F)c(F)c2)no1", "RP-LC retention time": 947}
{"smiles": "COC(=O)c1cccc(C(=O)N2CCc3ccccc3C2)n1", "RP-LC retention time": 769}
{"smiles": "COc1ccc(CNC(=O)Nc2nnc(-c3ccc4c(c3)CCCC4)o2)cc1", "RP-LC retention time": 925}
{"smiles": "CCn1cc(-c2ccccc2)cc1C(=O)NC(C)c1cccnc1", "note": "(configuration not stated)", "RP-LC retention time": 692}
{"smiles": "O=C(NCCN1CCCCC1)c1ccc2c(=O)n(-c3ccc(F)cc3)c(N3CCCC3)nc2c1", "RP-LC retention time": 629}
{"smiles": "CCC1CN2C=Nc3oc(C)c(C(=O)NCCc4ccc(OC)c(OC)c4)c3C2=N1", "note": "(configuration not stated)", "RP-LC retention time": 645}
{"smiles": "COc1ccc(CNC(=O)Cn2c(C(F)(F)F)nc3cc4c(cc32)OCCO4)cc1OC", "RP-LC retention time": 764}
{"smiles": "Cc1ccc2nc3sc(C(=O)Nc4cccc(C(F)(F)F)c4)cc3c(=O)n2c1", "RP-LC retention time": 980}
{"smiles": "Cn1nc(C(=O)N2CCCC2)c2c1CCN(C(=O)Nc1ccccc1)C2", "RP-LC retention time": 704}
{"smiles": "CC(C)(C)c1ccc(-c2nc3ccccc3[nH]2)cc1", "RP-LC retention time": 702}
{"smiles": "CC(C)n1c(CCNC(=O)c2ccccc2F)nc2cccnc21", "RP-LC retention time": 652}
{"smiles": "Cc1cc(F)ccc1NS(=O)(=O)c1ccc(-c2c(C)noc2C)cc1", "RP-LC retention time": 964}
{"smiles": "COc1ccc(Cl)cc1NC(=O)C1CCN(S(=O)(=O)c2ccc3c(c2)NC(=O)CO3)CC1", "RP-LC retention time": 880}
{"smiles": "Cc1ccc(C(=O)NC2CCN(c3nnc4ccc(C(F)(F)F)cn34)CC2)cc1", "RP-LC retention time": 802}
{"smiles": "COc1ccc(-c2noc(-c3nc(Cc4cccc(F)c4)no3)n2)cc1OC", "RP-LC retention time": 1100}
{"smiles": "CCCCN1CCC(CCC(=O)c2cc(Cl)c(N)cc2OC)CC1", "RP-LC retention time": 726}
{"smiles": "O=C(NCCN1CCOCC1)C1CCCN(c2ncnc3c2nc2n3CCCCC2)C1", "note": "(configuration not stated)", "RP-LC retention time": 575}
{"smiles": "Cc1ccc2c(Nc3cc(F)cc(F)c3)c(C(=O)N3CCOCC3)cnc2n1", "RP-LC retention time": 593}
{"smiles": "CN(CCc1noc(-c2ccccc2)n1)C(=O)Nc1ccc(F)cc1F", "RP-LC retention time": 858}
{"smiles": "Cc1ccc(N2CCN(c3nccn4c(=O)n(CC(=O)Nc5cc(C)cc(C)c5)nc34)CC2)cc1", "RP-LC retention time": 1030}
{"smiles": "CCCNC(=O)Cn1cc(C(=O)Nc2ccc(Cl)cc2)c(=O)c2ccc(C)nc21", "RP-LC retention time": 962}
{"smiles": "COCC(=O)N1CCCc2ccc(NC(=O)c3cc(C)on3)cc21", "RP-LC retention time": 680}
{"smiles": "CCc1ccc(C2=Nc3ccccc3N(CC(N)=O)C(=O)C2)cc1", "RP-LC retention time": 788}
{"smiles": "CC(=O)N1CCc2cc(N3CC(C(=O)Nc4ccc(F)cc4F)CC3=O)ccc21", "note": "(configuration not stated)", "RP-LC retention time": 688}
